According to ChEMBL document CHEMBL1122832, “4-substituted 5-[m-(trifluoromethyl)phenoxy]primaquine analogues as potential antimalarial agents” (1985):
Several values for one entry are separate records, joined by “and”; a condition that tells them apart may be missing. Equal entries are not always repeated.

What was measured:
Assay type in all cases: functional
[1] = tested on: Mus musculus; assay: Antimalarial activity against Plasmodium berghei in mice (Mus musculus) at a dose of 40 mg/kg and activity expressed as number cures surviving 60 days
[2] = tested on: Mus musculus; assay: Antimalarial activity against Plasmodium berghei yoelii in mice (Mus musculus) at a dose of 10 mg/kg administered by peroral and activity expressed as cures; 5/5; conditions: route oral
[3] = tested on: Plasmodium cynomolgi; assay: Antimalarial activity against Plasmodium cynomolgi infected Rhesus monkeys (Macaca mulatta) at 1.0 mg/kg; cured 2 of 2
[4] = tested on: Mus musculus; assay: Mean survival time of mice(Plasmodium berghei) at a dose of 5 mg/kg, total no. of mice = 5
[5] = tested on: Plasmodium cynomolgi; assay: Antimalarial activity as relapses in Plasmodium cynomolgi infected Rhesus monkeys (Macaca mulatta) at 0.1 mg/kg
[6] = tested on: Mus musculus; assay: Antimalarial activity against Plasmodium berghei yoelii in mice (Mus musculus) at a dose of 40 mg/kg administered subcutaneously and activity expressed as cures; 9/10; conditions: route subcutaneous
[7] = tested on: Mus musculus; assay: Antimalarial activity against Plasmodium berghei in mice (Mus musculus) at a dose of 20 mg/kg and activity expressed as number cures surviving 60 days
[8] = tested on: Plasmodium cynomolgi; assay: Antimalarial activity against Plasmodium cynomolgi infected Rhesus monkeys (Macaca mulatta) at 0.1 mg/kg; cured 0 of 2
[9] = tested on: Mus musculus; assay: Antimalarial activity against Plasmodium berghei in mice (Mus musculus) at a dose of 320 mg/kg and activity expressed as number cures surviving 60 days
[10] = tested on: Mus musculus; assay: Antimalarial activity against Plasmodium berghei yoelii in mice (Mus musculus) at a dose of 2.5 mg/kg administered by subcutaneous and activity expressed as cures; 1/5
[11] = tested on: Mus musculus; assay: Antimalarial activity against Plasmodium berghei yoelii in mice (Mus musculus) at a dose of 10 mg/kg administered by subcutaneous and activity expressed as cures; 8/10
[12] = tested on: Mus musculus; assay: Antimalarial activity against Plasmodium berghei in mice (Mus musculus) at a dose of 160 mg/kg and activity expressed as number cures surviving 60 days
[13] = tested on: Mus musculus; assay: Mean survival time of mice(Plasmodium berghei) at a dose of 10 mg/kg, total no. of mice = 5
[14] = tested on: Mus musculus; assay: Antimalarial activity against Plasmodium berghei yoelii in mice (Mus musculus) at a dose of 2.5 mg/kg administered by peroral and activity expressed as cures; 0/5; conditions: route oral
[15] = tested on: Mus musculus; assay: Antimalarial activity against Plasmodium berghei in mice (Mus musculus) at a dose of 640 mg/kg and activity expressed as number cures surviving 60 days
[16] = tested on: Plasmodium cynomolgi; assay: Antimalarial activity against Plasmodium cynomolgi infected Rhesus monkeys (Macaca mulatta) at 0.316 mg/kg; cured 1 of 2
[17] = tested on: Plasmodium cynomolgi; assay: Antimalarial activity against Plasmodium cynomolgi infected Rhesus monkeys (Macaca mulatta) at 0.316 mg/kg; relapses
[18] = tested on: Mus musculus; assay: Antimalarial activity against Plasmodium berghei yoelii in mice (Mus musculus) at a dose of 40 mg/kg administered by peroral and activity expressed as cures; 4/5; conditions: route oral
[19] = tested on: Mus musculus; assay: Antimalarial activity against Plasmodium berghei yoelii in mice (Mus musculus) at a dose of 160 mg/kg administered subcutaneously and activity expressed as cures; […]; conditions: route subcutaneous
[20] = tested on: Mus musculus; assay: Antimalarial activity against Plasmodium berghei in mice (Mus musculus) at a dose of 80 mg/kg and activity expressed as number cures surviving 60 days
[21] = tested on: Mus musculus; assay: Antimalarial activity against Plasmodium berghei in mice (Mus musculus) at a dose of 320 mg/kg and activity expressed as toxic deaths on days 2-5
[22] = tested on: Mus musculus; assay: Mean survival time of mice(Plasmodium berghei) at a dose of 80 mg/kg, total no. of mice = 5
[23] = tested on: Mus musculus; assay: Antimalarial activity against Plasmodium berghei in mice (Mus musculus) at a dose of 160 mg/kg and activity expressed as toxic deaths on days 2-5
[24] = tested on: Mus musculus; assay: Antimalarial activity against Plasmodium berghei in mice (Mus musculus) at a dose of 640 mg/kg and activity expressed as toxic deaths on days 2-5
[25] = tested on: Plasmodium cynomolgi; assay: Antimalarial activity against Plasmodium cynomolgi infected Rhesus monkeys (Macaca mulatta) at 1.0 mg/kg;cured 0 of 2
[26] = tested on: Plasmodium cynomolgi; assay: Antimalarial activity against Plasmodium cynomolgi infected Rhesus monkeys (Macaca mulatta) at 1.0 mg/kg; relapses
[27] = tested on: Mus musculus; assay: Mean survival time of mice(Plasmodium berghei) at a dose of 40 mg/kg, total no. of mice = 5
[28] = tested on: Mus musculus; assay: Antimalarial activity against Plasmodium berghei yoelii in mice (Mus musculus) at a dose of 10 mg/kg administered perorally and activity expressed as cures; 0/15; conditions: route oral
[29] = tested on: Mus musculus; assay: Mean survival time of mice(Plasmodium berghei) at a dose of 20 mg/kg, total no. of mice = 5
[30] = tested on: Mus musculus; assay: Antimalarial activity against Plasmodium berghei yoelii in mice (Mus musculus) at a dose of 160 mg/kg administered subcutaneously and activity expressed as cures; 10/10; conditions: route subcutaneous
[31] = tested on: Mus musculus; assay: Antimalarial activity against Plasmodium berghei yoelii in mice (Mus musculus) at a dose of 2.5 mg/kg administered subcutaneously and activity expressed as cures; 0/5; conditions: route subcutaneous
[32] = tested on: Mus musculus; assay: Antimalarial activity against Plasmodium berghei yoelii in mice (Mus musculus) at a dose of 40 mg/kg administered by subcutaneous and activity expressed as cures; 12/15
[33] = tested on: Mus musculus; assay: Antimalarial activity against Plasmodium berghei yoelii in mice (Mus musculus) at a dose of 10 mg/kg administered subcutaneously and activity expressed as cures; 9/15; conditions: route subcutaneous
[34] = tested on: Mus musculus; assay: Mean survival time of mice(Plasmodium berghei) at a dose of 640 mg/kg, total no. of mice = 5
[35] = tested on: Mus musculus; assay: Mean survival time of mice(Plasmodium berghei) at a dose of 160 mg/kg, total no. of mice = 5
[36] = tested on: Plasmodium cynomolgi; assay: Antimalarial activity against Plasmodium cynomolgi infected Rhesus monkeys (Macaca mulatta) at 0.1 mg/kg; cured 0 of 1
[37] = tested on: Plasmodium cynomolgi; assay: Antimalarial activity against Plasmodium cynomolgi infected Rhesus monkeys (Macaca mulatta) at 0.316 mg/kg dose; Cured 2 of 2
[38] = tested on: Mus musculus; assay: Antimalarial activity against Plasmodium berghei yoelii in mice (Mus musculus) at a dose of 160 mg/kg administered by subcutaneous and activity expressed as cures; 2/25
[39] = tested on: Plasmodium cynomolgi; assay: Antimalarial activity against Plasmodium cynomolgi infected Rhesus monkeys (Macaca mulatta) at 0.1 mg/kg; relapses in 2 of 2
[40] = tested on: Mus musculus; assay: Antimalarial activity against Plasmodium berghei yoelii in mice (Mus musculus) at a dose of 10 mg/kg administered subcutaneously and activity expressed as cures; 6/25; conditions: route subcutaneous
[41] = tested on: Mus musculus; assay: Antimalarial activity against Plasmodium berghei yoelii in mice (Mus musculus) at a dose of 40 mg/kg administered subcutaneously and activity expressed as cures; 5/25; conditions: route subcutaneous
[42] = tested on: Mus musculus; assay: Mean survival time of mice(Plasmodium berghei) at a dose of 320 mg/kg, total no. of mice = 5
[43] = tested on: Plasmodium cynomolgi; assay: Antimalarial activity against Plasmodium cynomolgi infected Rhesus monkeys (Macaca mulatta) at 1.0 mg/kg; cured 0 of 1
[44] = tested on: Mus musculus; assay: Antimalarial activity against Plasmodium berghei yoelii in mice (Mus musculus) at a dose of 40 mg/kg administered by subcutaneous and activity expressed as cures; 14/15
[45] = tested on: Mus musculus; assay: Antimalarial activity against Plasmodium berghei yoelii in mice (Mus musculus) at a dose of 160 mg/kg administered subcutaneously and activity expressed as cures; conditions: route subcutaneous
[46] = tested on: Mus musculus; assay: Antimalarial activity against Plasmodium berghei yoelii in mice (Mus musculus) at a dose of 10 mg/kg administered by peroral and activity expressed as cures; 3/10; conditions: route oral
[47] = tested on: Mus musculus; assay: Antimalarial activity against Plasmodium berghei yoelii in mice (Mus musculus) at a dose of 160 mg/kg administered by subcutaneous and activity expressed as toxic
[48] = tested on: Mus musculus; assay: Antimalarial activity against Plasmodium berghei yoelii in mice (Mus musculus) at a dose of 40 mg/kg administered perorally and activity expressed as cures; conditions: route oral
[49] = tested on: Mus musculus; assay: Antimalarial activity against Plasmodium berghei yoelii in mice (Mus musculus) at a dose of 2.5 mg/kg and activity expressed as toxic
[50] = tested on: Mus musculus; assay: Antimalarial activity against Plasmodium berghei yoelii in mice (Mus musculus) at a dose of 2.5 mg/kg administered by subcutaneous and activity expressed as cures; 0/10
[51] = tested on: Mus musculus; assay: Antimalarial activity against Plasmodium berghei in mice (Mus musculus) at a dose of 64 mg/kg and activity expressed as toxic deaths on days 2-5
[52] = tested on: Mus musculus; assay: Antimalarial activity against Plasmodium berghei yoelii in mice (Mus musculus) at a dose of 10 mg/kg administered by subcutaneous and activity expressed as cures; 10/15
[53] = tested on: Mus musculus; assay: Antimalarial activity against Plasmodium berghei yoelii in mice (Mus musculus) at a dose of 2.5 mg/kg administered perorally and activity expressed as cures; 3/10; conditions: route oral
[54] = tested on: Plasmodium cynomolgi; assay: Antimalarial activity against Plasmodium cynomolgi in Rhesus monkeys (Macaca mulatta) at 0.316 mg/kg; cured 0 of 2
[55] = tested on: Plasmodium cynomolgi; assay: Antimalarial activity against Plasmodium cynomolgi infected Rhesus monkeys (Macaca mulatta) at 1.0 mg/kg; cured 1 of 2

COCc1ccnc2c(NC(C)CCCN)cc(OC)c(Oc3cccc(C(F)(F)F)c3)c12 (stereo unspecified)
Cures [1]: 5
Cures [2]: 5
Cures [3]: 2
Delta MST [4]: 2.8
Relapses [5]: 8
Cures [6]: 9
Cures [7]: 1
Cures [8]: 0
Cures [9]: 4
Cures [10]: 1
Cures [11]: 8
Cures [12]: 4
Delta MST [13]: 6.6
Cures [14]: 0
Cures [15]: 2
Cures [16]: 1
Relapses [17]: 28
Cures [18]: 4
Cures [19]: 5
Cures [20]: 5

COc1cc(NC(C)CCCN)c2ncccc2c1.O=P(O)(O)O.O=P(O)(O)O (stereo unspecified) [PRIMAQUINE PHOSPHATE]
Toxic [21]: 5
Delta MST [22]: 9
Toxic [23]: 2
Toxic [24]: 5

COc1cc(NC(C)CCCN)c2nccc(C(OC)OC)c2c1Oc1cccc(C(F)(F)F)c1 (stereo unspecified)
Cures [25]: 0
Relapses [26]: 24 and 44
Delta MST [4]: 1.9
Delta MST [27]: 8.5
Toxic [24]: 5
Cures [9]: 2
Cures [28]: 0
Cures [12]: 3
Delta MST [29]: 5.5
Delta MST [13]: 2.5
Cures [30]: 10
Cures [14]: 0
Cures [31]: 0
Cures [32]: 12
Cures [33]: 9
Cures [18]: 4
Cures [20]: 1

C=Cc1ccnc2c(NC(C)CCCN)cc(OC)c(Oc3cccc(C(F)(F)F)c3)c12 (stereo unspecified)
Cures [25]: 0
Relapses [26]: 12 and 19
Delta MST [34]: 8.1
Delta MST [27]: -0.1
Delta MST [35]: 3.7

COc1cc(NC(C)CCCN)c2nccc(C)c2c1Oc1cccc(C(F)(F)F)c1 (stereo unspecified)
Cures [1]: 5
Cures [3]: 2
Cures [36]: 0
Cures [7]: 5
Toxic [24]: 4
Cures [37]: 2
Cures [12]: 5
Cures [15]: 1

CCc1ccnc2c(NC(C)CCCN)cc(OC)c(Oc3cccc(C(F)(F)F)c3)c12 (stereo unspecified)
Cures [38]: 2
Cures [1]: 4
Cures [3]: 2
Delta MST [4]: 1.7
Toxic [23]: 3
Cures [7]: 3
Cures [8]: 0
Cures [9]: 5
Cures [37]: 2
Relapses [39]: 20
Cures [40]: 6
Cures [12]: 5
Delta MST [13]: 5.3
Cures [41]: 5
Cures [15]: 1
Cures [20]: 4

COc1cc(NC(C)CCCN)c2nccc(CO)c2c1Oc1cccc(C(F)(F)F)c1 (stereo unspecified)
Delta MST [42]: 13.1
Cures [43]: 0
Delta MST [4]: 0.6
Cures [44]: 14
Cures [45]: 3
Delta MST [27]: 3.8
Cures [46]: 3
Toxic [47]: 2
Cures [48]: 10
Delta MST [35]: 14.8
Toxic [49]: 7
Cures [50]: 0
Delta MST [29]: 3.6
Delta MST [13]: 1.4
Toxic [51]: 4
Cures [52]: 10
Cures [20]: 1
Cures [53]: 3

COc1cc(NC(C)CCCN)c2ncccc2c1 (stereo unspecified) [PRIMAQUINE]
Cures [8]: 0
Cures [54]: 0
Cures [55]: 1
